Test system: T1, L-asparaginase (N-SMASP)
T1 construct: native enzyme purified from culture supernatant of chloramphenicol-selected colonies (ammonium sulfate, Sephadex G-100); single 17 kDa band on SDS-PAGE
Test: Nessler ammonia release assay, Lineweaver-Burk
Type: biochemical, Stenotrophomonas maltophilia
Conditions: 0.05 M Tris-HCl pH 8.6, 37 °C

Compound `NC(=O)C[C@H](N)C(=O)O` [L-asparagine] has a Km of 41.6 mM.

From paper PMC11069494, “Production of highly cytotoxic and low immunogenic L-asparaginase from Stenotrophomonas maltophilia EMCC2297” (AMB Express, 2024)
